Laboratory results taken from patent publication US10004701B2, “Methods and compositions for treating infection” (UNIVERSITY OF ROCHESTER, priority 2012, dated 2018).
Structures can show the parent of a compound that is named as a salt. Where two headings read alike, the source gives them in different places.

How the values were obtained:
Experiment in all cases: AK assay 384-well format, Prestwick library screening
[1] = system: A. baumannii strain 98-37-09; assay type: cell-based, Acinetobacter baumannii; conditions: Acinetobacter baumannii, 983709, 3 h
P. aeruginosa = assay type: cell-based, Pseudomonas aeruginosa; conditions: Pseudomonas aeruginosa, 3 h
E. faecium = assay type: cell-based, Enterococcus faecium; conditions: Enterococcus faecium, 3 h
E. coli = assay type: cell-based, Escherichia coli; conditions: Escherichia coli, 3 h
[2] = system: S. aureus strain USA300-0114; assay type: cell-based, Staphylococcus aureus; conditions: Staphylococcus aureus, USA300, 3 h
K. pneumoniae = assay type: cell-based, Klebsiella pneumoniae; conditions: Klebsiella pneumoniae, 3 h
E. cloacae = assay type: cell-based, Enterobacter cloacae; conditions: Enterobacter cloacae, 3 h
[3] = 50 μM final drug concentration, […], read-out: AK-based Prestwick Library Screening Results, A. baumannii (fold increase in extracellular AK activity)
[4] = 50 μM final drug concentration, […], read-out: AK-based Prestwick Library Screening Results, P. aeruginosa (fold increase in extracellular AK activity)
[5] = 50 μM final drug concentration, […], read-out: AK-based Prestwick Library Screening Results, E. faecium (fold increase in extracellular AK activity)
[6] = 50 μM final drug concentration, […], read-out: AK-based Prestwick Library Screening Results, E. coli (fold increase in extracellular AK activity)
[7] = 50 μM final drug concentration, […], read-out: AK-based Prestwick Library Screening Results, S. aureus (fold increase in extracellular AK activity)
[8] = 50 μM final drug concentration, […], read-out: AK-based Prestwick Library Screening Results, K. pneumoniae (fold increase in extracellular AK activity)
[9] = 50 μM final drug concentration, […], read-out: AK-based Prestwick Library Screening Results, E. cloacae (fold increase in extracellular AK activity)
[10] = 50 μM final drug concentration, cutoff for positive-scoring molecules 3-fold increase, read-out: AK-based Prestwick Library Screening Results, A. baumannii (fold increase in extracellular AK activity)
[11] = 50 μM final drug concentration, cutoff for positive-scoring molecules 3-fold increase, read-out: AK-based Prestwick Library Screening Results, P. aeruginosa (fold increase in extracellular AK activity)
[12] = 50 μM final drug concentration, cutoff for positive-scoring molecules 3-fold increase, read-out: AK-based Prestwick Library Screening Results, E. faecium (fold increase in extracellular AK activity)
[13] = 50 μM final drug concentration, cutoff for positive-scoring molecules 3-fold increase, read-out: AK-based Prestwick Library Screening Results, E. coli (fold increase in extracellular AK activity)
[14] = 50 μM final drug concentration, cutoff for positive-scoring molecules 3-fold increase, read-out: AK-based Prestwick Library Screening Results, S. aureus (fold increase in extracellular AK activity)
[15] = 50 μM final drug concentration, cutoff for positive-scoring molecules 3-fold increase, read-out: AK-based Prestwick Library Screening Results, K. pneumoniae (fold increase in extracellular AK activity)
[16] = 50 μM final drug concentration, cutoff for positive-scoring molecules 3-fold increase, read-out: AK-based Prestwick Library Screening Results, E. cloacae (fold increase in extracellular AK activity)
[17] = 50 μM final drug concentration, planktonic, […], read-out: AK-based Prestwick Library Screening Results, A. baumannii (fold increase in extracellular AK activity)
[18] = 50 μM final drug concentration, planktonic, […], read-out: AK-based Prestwick Library Screening Results, P. aeruginosa (fold increase in extracellular AK activity)
[19] = 50 μM final drug concentration, planktonic, […], read-out: AK-based Prestwick Library Screening Results, E. faecium (fold increase in extracellular AK activity)
[20] = 50 μM final drug concentration, planktonic, […], read-out: AK-based Prestwick Library Screening Results, E. coli (fold increase in extracellular AK activity)
[21] = 50 μM final drug concentration, planktonic, […], read-out: AK-based Prestwick Library Screening Results, S. aureus (fold increase in extracellular AK activity)
[22] = 50 μM final drug concentration, planktonic, […], read-out: AK-based Prestwick Library Screening Results, K. pneumoniae (fold increase in extracellular AK activity)
[23] = 50 μM final drug concentration, planktonic, […], read-out: AK-based Prestwick Library Screening Results, E. cloacae (fold increase in extracellular AK activity)

CN1[C@@H]2C[C@@H](OC(=O)[C@H](CO)c3ccccc3)C[C@H]1[C@@H]1O[C@@H]12 [Scopolamine hydrochloride]
fold induction at 50 µM [1, 3]: 1.2 | fold induction at 50 µM (P. aeruginosa; [4]): 1.1 | fold induction at 50 µM (E. faecium; [5]): 1 | fold induction at 50 µM (E. coli; [6]): 1.2 | fold induction at 50 µM [2, 7]: 1.2 | fold induction at 50 µM (K. pneumoniae; [8]): 1.1 | fold induction at 50 µM (E. cloacae; [9]): 1.5

COc1cc2ccc(=O)oc2cc1O [Scopoletin]
fold induction at 50 µM [1, 10]: 0.4 | fold induction at 50 µM (P. aeruginosa; [11]): 0.4 | fold induction at 50 µM (E. faecium; [12]): 0.9 | fold induction at 50 µM (E. coli; [13]): 0.4 | fold induction at 50 µM [2, 14]: 0.3 | fold induction at 50 µM (K. pneumoniae; [15]): 0.4 | fold induction at 50 µM (E. cloacae; [16]): 0.3

COc1cc2c(cc1O)[C@@H]1Cc3ccc(OC)c(O)c3CN1CC2 [Scoulerine]
fold induction at 50 µM [1, 17]: 1.3 | fold induction at 50 µM (P. aeruginosa; [18]): 1.1 | fold induction at 50 µM (E. faecium; [19]): 1 | fold induction at 50 µM (E. coli; [20]): 1.2 | fold induction at 50 µM [2, 21]: 1 | fold induction at 50 µM (K. pneumoniae; [22]): 1 | fold induction at 50 µM (E. cloacae; [23]): 1.6

O=C1C=C2C=C[C@@H]3C[C@@]2(O1)[C@H]1CCCCN31 [Securinine]
fold induction at 50 µM [1, 3]: 1.1 | fold induction at 50 µM (P. aeruginosa; [4]): 1.2 | fold induction at 50 µM (E. faecium; [5]): 1 | fold induction at 50 µM (E. coli; [6]): 1.3 | fold induction at 50 µM [2, 7]: 1.1 | fold induction at 50 µM (K. pneumoniae; [8]): 0.8 | fold induction at 50 µM (E. cloacae; [9]): 1.6

C#CCN(C)[C@H](C)Cc1ccccc1 [Selegiline hydrochloride]
fold induction at 50 µM [1, 17]: 1.1 | fold induction at 50 µM (P. aeruginosa; [18]): 1.2 | fold induction at 50 µM (E. faecium; [19]): 1 | fold induction at 50 µM (E. coli; [20]): 1.3 | fold induction at 50 µM [2, 21]: 1.1 | fold induction at 50 µM (K. pneumoniae; [22]): 1.2 | fold induction at 50 µM (E. cloacae; [23]): 1.6

C=C1C/C(=C/C)C(=O)O[C@@H]2CCN3CC=C(COC(=O)[C@]1(C)O)[C@H]23 [Seneciphylline]
fold induction at 50 µM ([1]; planktonic A. baumannii, 50 μM final drug concentration, […], read-out: AK-based Prestwick Library Screening Results, A. baumannii (increase in extracellular AK activity)): 0.8 | fold induction at 50 µM (P. aeruginosa; planktonic P. aeruginosa, 50 μM final drug concentration, […], read-out: AK-based Prestwick Library Screening Results, P. aeruginosa (increase in extracellular AK activity)): 0.8 | fold induction at 50 µM (E. faecium; planktonic E. faecium, 50 μM final drug concentration, […], read-out: AK-based Prestwick Library Screening Results, E. faecium (increase in extracellular AK activity)): 0.9 | fold induction at 50 µM (E. coli; planktonic E. coli, 50 μM final drug concentration, […], read-out: AK-based Prestwick Library Screening Results, E. coli (increase in extracellular AK activity)): 0.9 | fold induction at 50 µM ([2]; planktonic S. aureus, 50 μM final drug concentration, […], read-out: AK-based Prestwick Library Screening Results, S. aureus (increase in extracellular AK activity)): 0.8 | fold induction at 50 µM (K. pneumoniae; planktonic K. pneumoniae, 50 μM final drug concentration, […], read-out: AK-based Prestwick Library Screening Results, K. pneumoniae (increase in extracellular AK activity)): 0.7 | fold induction at 50 µM (E. cloacae; planktonic E. cloacae, 50 μM final drug concentration, […], read-out: AK-based Prestwick Library Screening Results, E. cloacae (increase in extracellular AK activity)): 1.2

NCCc1c[nH]c2ccc(O)cc12 [Serotonin hydrochloride]
fold induction at 50 µM ([1]; planktonic A. baumannii, 50 μM final drug concentration, 384-well, […], read-out: AK-based Prestwick Library Screening Results: A. baumannii (increase in extracellular AK activity)): 0.6 | fold induction at 50 µM (P. aeruginosa; planktonic P. aeruginosa, 50 μM final drug concentration, 384-well, […], read-out: AK-based Prestwick Library Screening Results: P. aeruginosa (increase in extracellular AK activity)): 0.6 | fold induction at 50 µM (E. faecium; planktonic E. faecium, 50 μM final drug concentration, 384-well, […], read-out: AK-based Prestwick Library Screening Results: E. faecium (increase in extracellular AK activity)): 0.9 | fold induction at 50 µM (E. coli; planktonic E. coli, 50 μM final drug concentration, 384-well, cutoff for positive-scoring molecules 3-fold increase, read-out: AK-based Prestwick Library Screening Results: E. coli (increase in extracellular AK activity)): 0.8 | fold induction at 50 µM ([2]; planktonic S. aureus, 50 μM final drug concentration, 384-well, […], read-out: AK-based Prestwick Library Screening Results: S. aureus (increase in extracellular AK activity)): 0.6 | fold induction at 50 µM (K. pneumoniae; planktonic K. pneumoniae, 50 μM final drug concentration, 384-well, […], read-out: AK-based Prestwick Library Screening Results: K. pneumoniae (increase in extracellular AK activity)): 0.6 | fold induction at 50 µM (E. cloacae; planktonic E. cloacae, 50 μM final drug concentration, 384-well, […], read-out: AK-based Prestwick Library Screening Results: E. cloacae (increase in extracellular AK activity)): 0.6

Clc1ccc(C(Cn2ccnc2)OCc2csc3c(Cl)cccc23)c(Cl)c1 (stereo not shown) [Sertaconazole nitrate]
fold induction at 50 µM [1, 10]: 2.4 | fold induction at 50 µM (P. aeruginosa; [11]): 0.5 | fold induction at 50 µM (E. faecium; [12]): 2.8 | fold induction at 50 µM (E. coli; [13]): 0.7 | fold induction at 50 µM [2, 14]: 0.7 | fold induction at 50 µM (K. pneumoniae; [15]): 0.7 | fold induction at 50 µM (E. cloacae; [16]): 0.4

CN[C@H]1CC[C@@H](c2ccc(Cl)c(Cl)c2)c2ccccc21 [Sertraline]
fold induction at 50 µM ([1]; planktonic A. baumannii, 50 μM final drug concentration, positive cutoff 3-fold increase, read-out: AK-based Prestwick library screening result, A. baumannii (fold increase in extracellular AK activity)): 2.9 | fold induction at 50 µM (P. aeruginosa; planktonic P. aeruginosa, 50 μM final drug concentration, positive cutoff 3-fold increase, read-out: AK-based Prestwick library screening result, P. aeruginosa (fold increase in extracellular AK activity)): 1.2 | fold induction at 50 µM (E. faecium; planktonic E. faecium, 50 μM final drug concentration, positive cutoff 3-fold increase, read-out: AK-based Prestwick library screening result, E. faecium (fold increase in extracellular AK activity)): 1.1 | fold induction at 50 µM (E. coli; planktonic E. coli, 50 μM final drug concentration, positive cutoff 3-fold increase, read-out: AK-based Prestwick library screening result, E. coli (fold increase in extracellular AK activity)): 1.6 | fold induction at 50 µM ([2]; planktonic S. aureus, 50 μM final drug concentration, positive cutoff 3-fold increase, read-out: AK-based Prestwick library screening result, S. aureus (fold increase in extracellular AK activity)): 1.6 | fold induction at 50 µM (K. pneumoniae; planktonic K. pneumoniae, 50 μM final drug concentration, positive cutoff 3-fold increase, read-out: AK-based Prestwick library screening result, K. pneumoniae (fold increase in extracellular AK activity)): 1.4 | fold induction at 50 µM (E. cloacae; planktonic E. cloacae, 50 μM final drug concentration, positive cutoff 3-fold increase, read-out: AK-based Prestwick library screening result, E. cloacae (fold increase in extracellular AK activity)): 1.5

CCC(C)(C)C(=O)O[C@H]1C[C@@H](C)C=C2C=C[C@H](C)[C@H](CC[C@@H]3C[C@@H](O)CC(=O)O3)[C@H]21 [Simvastatin]
fold induction at 50 µM ([1]; read-out: AK-based Prestwick Library Screening Results, A. baumannii (fold increase in extracellular AK activity)): 2.5 | fold induction at 50 µM (P. aeruginosa; read-out: AK-based Prestwick Library Screening Results, P. aeruginosa (fold increase in extracellular AK activity)): 1.1 | fold induction at 50 µM (E. faecium; read-out: AK-based Prestwick Library Screening Results, E. faecium (fold increase in extracellular AK activity)): 1 | fold induction at 50 µM (E. coli; read-out: AK-based Prestwick Library Screening Results, E. coli (fold increase in extracellular AK activity)): 1.6 | fold induction at 50 µM ([2]; read-out: AK-based Prestwick Library Screening Results, S. aureus (fold increase in extracellular AK activity)): 0.4 | fold induction at 50 µM (K. pneumoniae; read-out: AK-based Prestwick Library Screening Results, K. pneumoniae (fold increase in extracellular AK activity)): 1.2 | fold induction at 50 µM (E. cloacae; read-out: AK-based Prestwick Library Screening Results, E. cloacae (fold increase in extracellular AK activity)): 1.5
